Reference: US8058227B2, “Method of treating fibrosis in a subject in need thereof comprising administering a composition comprising a CSD” (Medical University of South Carolina, priority 2006, dated 2011)
“Also recorded” adds a separate entry of the source.

Tests used:
[1] = test system: normal lung fibroblasts (NLF); test: Collagen and ASMA expression in NLF treated with CSD and its subdomains; assay type: cell-based, human; settings: 3 μM peptide
Description: (§1) The indicated cell types (NLF and SLF) were cultured as described with 0, 1, 3, or 5 μM of the indicated peptides. Collagen in the medium and ASMA and actin (loading control) in the cell layer were detected by Western blotting. Blots were quantified densitometrically. The level of collagen and ASMA in cells treated with no peptide (divided by the level of actin) was set to 100 arbitrary units. Because SLF express higher levels of collagen and ASMA than do NLF, 100 arbitrary of collagen in SLF is equivalent to 195 arbitrary units of collagen in NLF and 100 arbitrary units of ASMA in SLF is equivalent to 255 arbitrary units of ASMA in NLF. The data presented are the average of the densitometric quantification of three independent experiments.
(§2) To compare the activity of CSD to its subdomains, five subdomains [A (82-88 amino acids), B (89-95), C (96-101), AB (82-95) and BC (89-101)] were synthesized in fusion with the Antennapedia internalization sequence and added to culture medium at 1, 3, and 5 μM. […] Very different results were obtained when examining ASMA expression.

[2] = test system: bleomycin-induced lung fibrosis; test: Bleomycin-induced lung fibrosis and CSD treatment in mice; assay type: in vivo, mouse
Description: Extract from each mouse was analyzed by Western blotting (25 μg total protein per lane) using antibodies against ph-ERK, caveolin-1, PKCε, ASMA, PKCα, tenascin-C, ph-Akt, ph-JNK, and actin (loading control); and the results quantified densitometrically (averages±s.e.m. are shown). The level of each protein in “Saline” was set to 100 arbitrary units. Actin levels (loading control) were similar in all four samples (not shown). Statistical significance: ns, not significant; **p<0.01; ***p<0.001.
Masson's Trichrome-stained sections from the experiments described in FIG. 11 were used to evaluate the effects of bleomycin and the CSD peptide on collagen expression (blue product) and lung tissue morphology. […] To generate the table, Masson's Trichrome-stained slides of lung tissue from all 41 mice sacrificed 14 days after saline or bleomycin treatment were scored blind in terms of the portion of the lung with abnormal morphology using an arbitrary scale: Normal morphology as in A=0, slightly altered morphology as in B=1, moderately altered morphology as in C=2, and severely altered morphology as in D 3. Bar in C=0.1 mm.
This procedure was approved by the MUSC Institutional Animal Care & Use Committee. Ten-week old, male CD 1 mice (Charles River, Boston, Mass.) were anesthetized and received bleomycin (Calbiochem, La Jolla, Calif.) or saline solution by intratracheal instillation as previously described (44). Two approaches were used for CSD peptide treatment. In both approaches the peptide treatment was initiated one day prior to bleomycin. In the first approach, Alzet pumps delivering 0.5 μl/h for 14 days of a 1 mM solution of CSD peptide were implanted into twelve mice; twelve additional mice received no pump. In the second approach twelve mice received daily intraperitoneal injections of 100 μl of a 0.15 mM solution of the CSD peptide for 14 days; twelve additional mice received the scrambled peptide. One day later, six mice from each group of twelve received intratracheal bleomycin, six received saline. After 14 days, lungs were harvested. Half of each set of lungs was fixed, sectioned, and stained with Masson's Trichrome Stain. The other half of each set of lungs was dissolved in SDS-PAGE sample buffer for Western blotting experiments. Because very similar results were obtained using the two approaches to CSD peptide treatment, results were pooled.
Student's t test was used to analyze protein expression levels in lung tissue samples obtained from normal individuals and from scleroderma patients. Protein expression levels for samples obtained from in vitro experiments and from mice were analyzed by two-way analysis of variance (ANOVA) followed by the Bonferroni post-test. For experiments in which the degree of tissue damage in mice treated with bleomycin was scored on an arbitrary scale, data was analyzed using the Mann-Whitney rank sum test. In all tests, results were regarded as statistically significant if p<0.05.

[3] = test system: scleroderma lung fibroblasts (SLF); test: Immunocytochemistry and laser confocal microscopy of CSD peptide-treated SLF; assay type: cell-based, human
Description: (§3) NLF or SLF cultured in 4-well glass chamber slides (Nalge Nunc International, Naperville, Ill.) as previously described (43) were incubated with CSD peptide or scrambled (Scr) peptide, fixed, permeabilized, and stained red with 7-aminoactinomycin D to detect nuclei and green using appropriate primary and secondary antibodies to detect caveolin-1 or ph-ERK. Images were captured by confocal microscopy.
as §3, with “ph-JNK” for “caveolin-1”, “ph-Akt.” for “ph-ERK.”
NLF and SLF were cultured in 4-well glass chamber slides (Nalge Nunc International, Naperville, Ill.) and stained as previously described (43) using the indicated primary antibodies and appropriate secondary antibodies tagged with Alexa Fluoro® 488 (Molecular Probes, Eugene, Oreg.). Nuclei were stained with 7-aminoactinomycin D (Molecular Probes, Eugene, Oreg.). Images were acquired using a Zeiss 510SML Laser Confocal Microscope (excitation S490/20, emission D528/38) fitted with an oil-immersion objective (40×/1.4).

[4] = test system: scleroderma lung fibroblasts (SLF); test: Collagen and ASMA expression in SLF treated with CSD and its subdomains; assay type: cell-based, human
Description: as §1, §2

[5] = mouse lung tissue, Western blotting, 14 days

DGIWKASFTTFTVTKYWFYR [CSD peptide]
collagen expression [1]: completely inhibited | median weight loss ([2]; bleomycin-treated mice receiving peptide (30% in untreated mice)): 14 % of original weight | tissue damage and collagen deposition ([2]; bleomycin-treated mice, CSD peptide via Alzet pumps or intraperitoneal injection, 14 days, Masson's Trichrome): slight to moderate | survival and lung tissue morphology ([2]; bleomycin-treated mice, systemic treatment with the peptide): striking positive effect | expression of caveolin-1 itself ([2]; lung tissue of bleomycin-treated mice, Western blotting): did not affect | inhibition of bleomycin-induced decrease in PKCα [2, 5]: about 50% | inhibition of bleomycin-induced decrease in PKCε [2, 5]: at least 75% | inhibition of bleomycin-induced increase in ASMA [2, 5]: at least 75% | inhibition of bleomycin-induced increase in ph-Akt [2, 5]: at least 75% | inhibition of bleomycin-induced increase in ph-ERK [2, 5]: at least 75% | inhibition of bleomycin-induced increase in ph-JNK [2, 5]: at least 75% | inhibition of bleomycin-induced increase in tenascin-C [2, 5]: at least 75% | level of caveolin-1 expression detected by IHC ([3]; CSD peptide vs Scr peptide): did not affect | distribution of caveolin-1 staining ([3]; CSD peptide vs Scr peptide, particularly in SLF): staining associated with the plasma membrane becoming more prominent | distribution of activated Akt staining ([3]; CSD peptide vs control peptide): preferentially decreased perinuclear, nuclear, and cytoplasmic staining while increasing staining associated with the plasma membrane | distribution of activated JNK staining ([3]; CSD peptide vs control peptide): preferentially decreased perinuclear staining and increased staining associated with the plasma membrane; also recorded: eliminated the intense punctate cytoplasmic staining | level of activated Akt (IHC) ([3]; CSD peptide vs control peptide): decreases | level of activated ERK (IHC) ([3]; CSD peptide vs control peptide): decreases | level of activated JNK (IHC) ([3]; CSD peptide vs control peptide): decreases | localization of residual activated ERK staining ([3]; after CSD peptide): primarily perinuclear and cytoplasmic | collagen expression ([4]; 3 μM peptide): completely inhibited | inhibition of ASMA expression ([4]; 5 μM peptide): about 80% | ASMA expression ([4]; peptides at 1, 3, and 5 μM): inhibited
